# Assay results as given in patent US20260109690A1, “HDAC6 INHIBITORS AND METHOD OF THEIR USE” (Baerenkraft Therapeutics, LLC., priority 2024, published 2026).
# Like-named read-outs stand apart in the source and are kept apart here.
# Columns and labels:
# [1] = biological target: HDAC3 (Homo sapiens, UniProt O15379); assay: HDAC selectivity panel: HDAC3; type: biochemical
# [2] = tested on: B6SJL.SOD1-G93A transgenic mouse model of amyotrophic lateral sclerosis; assay: ALS mouse model: beam walk test; type: in vivo, mice
# From the text: Beam walk test was used for the assessment of motor coordination or balance of animals. The beam apparatus consisted of 1-meter beams with a flat surface of 6 mm width resting 50 cm above the tabletop on two poles. Animals were placed at one end of the beam, allowed to traverse the beam and reach another end with a cage filled with the home cage bedding. Animals were trained on beams for 2 consecutive days, 3 trials per day with 30 s inter-trial interval. On day 3 (day of test), animals were tested on the beam. A total 3 trials were performed, and time taken to traverse the beam & number of slips were recorded, average data was analyzed. For animals unable to traverse the beam, a cutoff time of 60 s was assigned.
# Note: Number of slips were recorded until week 12 due to disease progression after that.
# Note: Behavioral tests were performed once in two weeks, i.e. at week 10, 12, 14 and 16.
# [3] = biological target: HDAC1 (Homo sapiens, UniProt Q13547); assay: HDAC selectivity panel: HDAC1; type: biochemical
# [4] = Oral bioavailability and brain/CSF uptake study of compound I-8; type: in vivo, male Swiss albino mice
# Description: Compound I-8 was evaluated for bioavailability, pharmacokinetics and brain/csf to plasma distribution in mouse plasma following oral and intravenous administration of compound I-8 in male Swiss albino mouse.
# A total of 24 male Swiss albino mouse were allotted for the study, Animals were allotted to 2 groups containing 12 mice/group, on day of dosing all the animals were fasted 3 hours before dosing. The test formulation was administered as a single dose by intravenous and oral route via tail vein and oral gavage needle at a dose of 1 and 5 mg/kg with a dose volume of 5 and 10 mL/kg, respectively.
# Approximately 0.1 mL of blood sample from each animal was collected via retro orbital at predetermined time points (3 animals/timepoint) in pre-labeled Eppendorf tubes containing anticoagulant. After blood collection at 2 h, 4 h and 6 h, CSF and whole brain was withdrawn, and brain tissue was homogenized as a terminal sampling. Blood samples were centrifuged at 10000 rpm for 5 min under refrigeration (2-4° C.) within 0.5 h to obtain plasma. The separated plasma samples were collected in pre labeled tubes within 60 min of separation and stored at −20° C. up to 24 h. Post 24 h sample collection, all plasma samples were transferred to deep freezer custodian to store below or at −70° C. until shipment.
# Brain tissues were blotted and dried and then transferred to 15 mL falcon tubes. Initially all tissue samples were stored at −20±3° C. Later all brain tissue samples were homogenized with PBS at 1:4 ratio and the Brain homogenate was transferred to deep freezer (−70±10° C.) and stored until bioanalysis.
# Mouse plasma, CSF and Brain homogenate concentrations were analyzed to quantify compound I-8 using a fit-for purpose LC-MS/MS method with LLOQ of 0.98 ng/mL. The PK parameters were evaluated using Phoenix WinNonlin® Ent-Version 8.3 by non-compartmental analysis.
# [5] = biological target: HDAC9 (Homo sapiens, UniProt Q9UKV0); assay: HDAC selectivity panel: HDAC9; type: biochemical
# [6] = tested on: B6SJL.SOD1-G93A transgenic mouse model of amyotrophic lateral sclerosis; assay: ALS mouse model: neurological scoring; type: in vivo, mice; details: scale of 4-0
# Description: At week 9, animals were treated either with vehicle or compound I-8 per orally Q.D. Animals were scored (twice in a week until week 12 and every day thereafter until termination) for motor impairment using Vercelli neurological scoring system at the scale of 4-0. Animals were subjected to different tests for motor coordination and muscle strength assessment once in two weeks.
# Animals were scored for motor deficits using the scoring system: • 4—Normal/no sign of motor dysfunction • 3—Presence of hindlimb tremors when suspended by tail • 2—Presence of gait abnormalities • […]—Dragging at least one hindlimb • Absence of right reflex within 30 seconds
# Animals were scored twice a week from initiation of treatment until week 12 and everyday thereafter until termination.
# [7] = biological target: T1, HDAC8 (Homo sapiens, UniProt Q9BY41); assay: HDAC selectivity panel: HDAC8; type: biochemical
# T1 sequence (Q9BY41 1-377): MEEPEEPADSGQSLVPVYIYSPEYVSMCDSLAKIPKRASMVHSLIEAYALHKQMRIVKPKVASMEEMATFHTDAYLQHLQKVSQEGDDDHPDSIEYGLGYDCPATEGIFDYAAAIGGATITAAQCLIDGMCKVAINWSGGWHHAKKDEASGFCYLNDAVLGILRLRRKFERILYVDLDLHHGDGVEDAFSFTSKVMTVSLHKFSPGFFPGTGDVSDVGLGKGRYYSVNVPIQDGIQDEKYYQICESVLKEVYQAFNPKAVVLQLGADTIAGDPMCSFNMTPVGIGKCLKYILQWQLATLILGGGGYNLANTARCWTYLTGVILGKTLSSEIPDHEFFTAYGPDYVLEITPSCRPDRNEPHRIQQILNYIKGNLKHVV
# [8] = male, Swiss albino, mouse, plasma, G1, intravenous 1 mg/kg
# [9] = male, Swiss albino, mouse, plasma, G2, oral 5 mg/kg
# [10] = male, Swiss albino, G1, intravenous 1 mg/kg, mouse plasma
# [11] = male, Swiss albino, G2, oral 5 mg/kg, mouse plasma
# Sequence of HDAC1 (Q13547 whole entry, species assumed): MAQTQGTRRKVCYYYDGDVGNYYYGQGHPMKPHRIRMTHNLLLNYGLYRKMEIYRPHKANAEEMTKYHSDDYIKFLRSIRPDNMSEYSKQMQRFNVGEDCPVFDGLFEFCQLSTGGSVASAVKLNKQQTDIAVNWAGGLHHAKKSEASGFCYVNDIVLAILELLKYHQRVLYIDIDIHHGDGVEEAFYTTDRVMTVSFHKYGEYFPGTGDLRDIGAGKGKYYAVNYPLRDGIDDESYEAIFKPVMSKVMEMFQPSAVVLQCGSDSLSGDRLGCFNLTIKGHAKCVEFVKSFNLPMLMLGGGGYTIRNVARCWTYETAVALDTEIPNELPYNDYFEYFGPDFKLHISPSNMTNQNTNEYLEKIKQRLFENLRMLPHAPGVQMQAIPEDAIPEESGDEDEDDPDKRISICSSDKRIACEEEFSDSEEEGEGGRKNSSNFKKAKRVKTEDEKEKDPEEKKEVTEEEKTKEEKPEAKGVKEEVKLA
# Sequence of HDAC9 (Q9UKV0 whole entry, species assumed): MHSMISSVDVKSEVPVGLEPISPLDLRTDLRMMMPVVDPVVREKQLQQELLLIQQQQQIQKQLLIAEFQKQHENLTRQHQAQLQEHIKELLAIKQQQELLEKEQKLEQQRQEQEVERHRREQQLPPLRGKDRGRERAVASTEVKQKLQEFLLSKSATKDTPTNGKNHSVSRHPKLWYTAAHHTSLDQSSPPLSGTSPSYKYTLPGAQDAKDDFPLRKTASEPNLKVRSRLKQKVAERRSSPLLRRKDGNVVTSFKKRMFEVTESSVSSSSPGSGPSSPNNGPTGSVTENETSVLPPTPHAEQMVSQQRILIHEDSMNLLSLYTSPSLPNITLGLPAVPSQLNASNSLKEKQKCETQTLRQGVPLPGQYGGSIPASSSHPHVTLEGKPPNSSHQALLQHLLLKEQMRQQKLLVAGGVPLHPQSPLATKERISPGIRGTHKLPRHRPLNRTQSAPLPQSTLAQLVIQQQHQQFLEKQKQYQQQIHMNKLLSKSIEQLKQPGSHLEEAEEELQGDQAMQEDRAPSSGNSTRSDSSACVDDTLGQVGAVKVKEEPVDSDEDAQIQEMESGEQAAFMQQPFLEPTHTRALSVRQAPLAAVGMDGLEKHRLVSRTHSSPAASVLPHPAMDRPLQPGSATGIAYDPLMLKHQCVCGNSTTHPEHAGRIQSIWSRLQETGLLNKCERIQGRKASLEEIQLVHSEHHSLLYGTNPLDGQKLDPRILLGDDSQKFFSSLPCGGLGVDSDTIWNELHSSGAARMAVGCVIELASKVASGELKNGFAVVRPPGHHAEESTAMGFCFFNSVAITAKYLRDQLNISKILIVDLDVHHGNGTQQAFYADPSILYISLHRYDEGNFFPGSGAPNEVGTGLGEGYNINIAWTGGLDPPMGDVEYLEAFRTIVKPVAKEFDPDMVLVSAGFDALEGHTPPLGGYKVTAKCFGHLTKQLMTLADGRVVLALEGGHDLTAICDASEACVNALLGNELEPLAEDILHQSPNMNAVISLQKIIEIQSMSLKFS
# Sequence of HDAC3 (O15379 whole entry, species assumed): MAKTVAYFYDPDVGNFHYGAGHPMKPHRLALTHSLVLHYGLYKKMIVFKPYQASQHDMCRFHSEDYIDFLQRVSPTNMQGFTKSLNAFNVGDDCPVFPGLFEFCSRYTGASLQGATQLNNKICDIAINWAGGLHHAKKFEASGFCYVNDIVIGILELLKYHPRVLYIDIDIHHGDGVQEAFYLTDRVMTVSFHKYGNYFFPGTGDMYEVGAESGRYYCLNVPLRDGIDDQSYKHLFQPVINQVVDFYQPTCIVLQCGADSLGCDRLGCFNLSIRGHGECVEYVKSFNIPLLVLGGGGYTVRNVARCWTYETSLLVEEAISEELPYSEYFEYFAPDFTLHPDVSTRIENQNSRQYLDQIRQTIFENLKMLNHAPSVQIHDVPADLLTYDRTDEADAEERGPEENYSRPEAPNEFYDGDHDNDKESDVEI
# Sequence of HDAC3 (Q9Y618 395-489 partner limits assumed, species assumed): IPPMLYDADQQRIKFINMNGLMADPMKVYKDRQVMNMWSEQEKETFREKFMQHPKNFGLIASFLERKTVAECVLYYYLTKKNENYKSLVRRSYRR
compound,measurement,setting,value
"CC1CN(Cc2ccc(Nc3nccc(-c4ccc(C(=O)NO)cc4)n3)cc2F)CCO1 (racemic) [Compound I-8, 4-(2-((3-fluoro-4-((2-methylmorpholino)methyl)phenyl)amino)pyrimidin-4-yl)-N-hydroxybenzamide]",IC50,[1],0.99 µM
same,Beam Walk Test- Latency to traverse the beam,"[2]; G3 15 mg/kg p.o. QD, Week 10",21.37 ± 5.99 s
same,Beam Walk Test: Number of Slips,"[2]; G3 15 mg/kg p.o. QD, Week 10",1.42 ± 0.14
same,Beam Walk Test- Latency to traverse the beam,"[2]; G3 15 mg/kg p.o. QD, Week 12",25.96 ± 5.59 s
same,Beam Walk Test: Number of Slips,"[2]; G3 15 mg/kg p.o. QD, Week 12",0.93 ± 0.19
same,Beam Walk Test- Latency to traverse the beam,"[2]; G3 15 mg/kg p.o. QD, Week 14",20.52 ± 6.85 s
same,Beam Walk Test- Latency to traverse the beam,"[2]; G3 15 mg/kg p.o. QD, Week 16",58.21 ± 1.79 s
same,Beam Walk Test- Latency to traverse the beam,"[2]; G4 30 mg/kg (50 mg/kg from day 34) p.o. QD, Week 10",17.04 ± 5.71 s
same,Beam Walk Test- Latency to traverse the beam,"[2]; G4 30 mg/kg (50 mg/kg from day 34) p.o. QD, Week 12",29.83 ± 6.82 s
same,Beam Walk Test- Latency to traverse the beam,"[2]; G4 30 mg/kg (50 mg/kg from day 34) p.o. QD, Week 14",25.29 ± 7.64 s
same,Beam Walk Test- Latency to traverse the beam,"[2]; G4 30 mg/kg (50 mg/kg from day 34) p.o. QD, Week 16, cutoff time 60 s",60 ± 0 s
same,Beam Walk Test: Number of Slips,"[2]; G4 30 mg/kg p.o. QD, Week 10",1.33 ± 0.40
same,Beam Walk Test: Number of Slips,"[2]; G4 30 mg/kg p.o. QD, Week 12",1.38 ± 0.34
same,latency to traverse the beam vs. G2,"[2]; G4, week 10",significant reduction in latency to traverse the beam
same,"motor balance compared to G2, disease control group","[2]; G4, week 10",significant improvement was observed in motor balance
same,IC50,[3],1.18 µM
same,Steady state and central compartment volume of distribution,[4]; intravenous 1 mg/kg,very high
same,clearance,"[4]; male, Swiss albino, mouse, plasma, iv, 1 mg/kg, G1, intravenous 1 mg/kg",~328 mL/min/kg
same,Vd,"[4]; male, Swiss albino, mouse, plasma, iv, 1 mg/kg, G1, intravenous 1 mg/kg, read-out: Vd",171 L/kg
same,Vd,"[4]; male, Swiss albino, mouse, plasma, iv, 1 mg/kg, G1, intravenous 1 mg/kg, read-out: Vss",188 L/kg
same,MRT,[4]; [8],3.28 h
same,half-life,[4]; [8],6.03 h
same,MRT,[4]; [9],4.75 h
same,Tmax,[4]; [9],8 h
same,bioavailability,"[4]; male, Swiss albino, mouse, plasma, G2, oral 5 mg/kg vs intravenous 1 mg/kg, read-out: % F (oral bioavailability)",53%
same,AUC(0-inf),[4]; [10],50.8 ng·h/mL
same,AUC(0-t),[4]; [10],27.1 ng·h/mL
same,C0,[4]; [10],27.3 ng/mL
same,AUC(0-t),[4]; [11],72.3 ng·h/mL
same,Cmax,[4]; [11],18.3 ng/mL
same,lag phase in absorption,[4]; oral 5 mg/kg,no lag phase in absorption
same,systemic availability,[4]; oral 5 mg/kg,moderate to high systemic availability
same,IC50,[5],22 µM
same,Neurological scoring,"[6]; G3 15 mg/kg p.o. QD, Day 1",4 ± 0
same,Neurological scoring,"[6]; G3 15 mg/kg p.o. QD, Day 7",4 ± 0
same,Neurological scoring,"[6]; G3 15 mg/kg p.o. QD, Day 13",3.89 ± 0.11
same,Neurological scoring,"[6]; G3 15 mg/kg p.o. QD, Day 21",3.44 ± 0.18
same,Neurological scoring,"[6]; G3 15 mg/kg p.o. QD, Day 28",3.11 ± 0.26
same,Neurological scoring,"[6]; G3 15 mg/kg p.o. QD, Day 35",2.22 ± 0.22
same,Neurological scoring,"[6]; G3 15 mg/kg p.o. QD, Day 42",2.11 ± 0.20
same,Neurological scoring,"[6]; G3 15 mg/kg p.o. QD, Day 49",1.89 ± 0.20
same,Neurological scoring,"[6]; G3 15 mg/kg p.o. QD, Day 52",1.56 ± 0.29
same,Neurological scoring,"[6]; G4 30 mg/kg (50 mg/kg from day 34) p.o. QD, Day 1",4 ± 0
same,Neurological scoring,"[6]; G4 30 mg/kg (50 mg/kg from day 34) p.o. QD, Day 7",4 ± 0
same,Neurological scoring,"[6]; G4 30 mg/kg (50 mg/kg from day 34) p.o. QD, Day 13",3.75 ± 0.16
same,Neurological scoring,"[6]; G4 30 mg/kg (50 mg/kg from day 34) p.o. QD, Day 21",3.5 ± 0.19
same,Neurological scoring,"[6]; G4 30 mg/kg (50 mg/kg from day 34) p.o. QD, Day 28",3 ± 0.27
same,Neurological scoring,"[6]; G4 30 mg/kg (50 mg/kg from day 34) p.o. QD, Day 35",2.25 ± 0.25
same,Neurological scoring,"[6]; G4 30 mg/kg (50 mg/kg from day 34) p.o. QD, Day 42",2.13 ± 0.23
same,Neurological scoring,"[6]; G4 30 mg/kg (50 mg/kg from day 34) p.o. QD, Day 49",1.88 ± 0.30
same,Neurological scoring,"[6]; G4 30 mg/kg (50 mg/kg from day 34) p.o. QD, Day 52 (n = 6-8)",2 ± 0.26
same,IC50,[7],0.102 µM
